Results taken from patent US12611415B2, “Methods and compounds for treatment of metabolic disease” (Monash University, priority 2019, dated 2026).

Key:
[1] = system: LECs from adult human skin (HMLEC-dLyAd); assay: Lymphatic endothelial cell (LEC) migration scratch assay with HFD-lymph; assay type: cell-based; conditions: 2% HFD-lymph; celecoxib 20 μM, MAZ51 5 μM
Method: LECs from adult human skin (HMLEC-dLyAd) were obtained from Lonza (Australia) at the 3rd passage. Cells were thawed and expanded in a T-75 flask at a minimum density of 500,000 cells per flask. Cells were grown in EGM-2MV BulletKit™ medium (CC-3162, Lonza, Australia), which consisted of EBM-2 basal medium supplemented with an EGM-2 SingleQuots™ kit (Lonza, Australia). Flasks were incubated at 37° C. and 5% CO2, and media was changed 24 h after seeding and then every 48 h. Cells were grown to 70-80% confluence and split every 4-5 days. For all experiments, cells were seeded onto plates or coverslips pre-coated with rat tail collagen Type I (50 μg/ml) for 1 h at 37° C. Cells were allowed to grow to 100% confluence (which typically occurred 1.5-2 days after seeding in a cell culture plate) prior to the start of experiments.
Once the LECs reached confluence, the impact of lymph fluid on LEC migration was assessed using a standard scratch assay. […]
Images taken at several time points after wounding (0, 12 and 24 hours) were analyzed using the Fiji distribution of ImageJ to determine the rate of LEC migration over the area of the scratched wound. To enable quantification of the area of the scratch wound, the brightness and contrast of the images was first adjusted to improve the visibility. An outline of the wound was manually drawn and the area of the wound was quantified at each time point. […]

VEGF receptor (VEGFR)-3 = biological target: T1, VEGF receptor (VEGFR)-3 (Homo sapiens, UniProt P35916); conditions: endothelial cell lines, including cultured lymphatic endothelial cell lines; cited from earlier work
T1 construct: host or cells: endothelial cell lines, including cultured lymphatic endothelial cell lines
T1 sequence (P35916 25-1363): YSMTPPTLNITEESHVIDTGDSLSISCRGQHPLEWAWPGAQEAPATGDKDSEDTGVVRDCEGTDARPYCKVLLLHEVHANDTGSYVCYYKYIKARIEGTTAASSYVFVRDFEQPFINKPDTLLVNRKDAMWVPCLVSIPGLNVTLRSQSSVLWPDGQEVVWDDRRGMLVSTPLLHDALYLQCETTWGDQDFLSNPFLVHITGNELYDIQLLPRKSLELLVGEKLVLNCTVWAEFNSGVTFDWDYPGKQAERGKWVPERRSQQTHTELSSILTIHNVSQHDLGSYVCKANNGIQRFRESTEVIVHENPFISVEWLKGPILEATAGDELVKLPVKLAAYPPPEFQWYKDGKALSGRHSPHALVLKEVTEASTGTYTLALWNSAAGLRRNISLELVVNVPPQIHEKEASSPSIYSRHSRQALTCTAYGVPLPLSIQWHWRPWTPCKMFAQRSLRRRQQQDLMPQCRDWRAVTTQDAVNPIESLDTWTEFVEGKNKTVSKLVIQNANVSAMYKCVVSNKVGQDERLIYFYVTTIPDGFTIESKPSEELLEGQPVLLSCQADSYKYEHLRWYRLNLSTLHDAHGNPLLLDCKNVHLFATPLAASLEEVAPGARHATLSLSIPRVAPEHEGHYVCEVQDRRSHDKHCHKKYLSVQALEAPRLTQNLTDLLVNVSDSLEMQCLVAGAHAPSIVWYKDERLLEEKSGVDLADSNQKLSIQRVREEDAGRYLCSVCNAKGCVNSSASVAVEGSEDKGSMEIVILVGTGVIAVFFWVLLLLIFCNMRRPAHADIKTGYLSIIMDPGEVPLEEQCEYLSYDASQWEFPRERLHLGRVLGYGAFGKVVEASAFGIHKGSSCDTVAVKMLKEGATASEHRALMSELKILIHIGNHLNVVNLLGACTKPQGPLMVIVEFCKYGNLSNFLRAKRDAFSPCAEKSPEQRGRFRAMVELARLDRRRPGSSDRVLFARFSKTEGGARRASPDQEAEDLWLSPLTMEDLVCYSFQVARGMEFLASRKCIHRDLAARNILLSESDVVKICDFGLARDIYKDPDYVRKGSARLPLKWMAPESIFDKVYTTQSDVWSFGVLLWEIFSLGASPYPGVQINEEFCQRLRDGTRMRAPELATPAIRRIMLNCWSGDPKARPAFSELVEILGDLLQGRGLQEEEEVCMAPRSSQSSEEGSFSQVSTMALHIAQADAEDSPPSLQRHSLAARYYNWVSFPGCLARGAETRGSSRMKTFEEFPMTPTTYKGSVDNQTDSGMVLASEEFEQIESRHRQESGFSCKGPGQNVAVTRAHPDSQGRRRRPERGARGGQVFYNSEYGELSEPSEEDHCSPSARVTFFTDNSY

In the case of CN(C)c1ccc(/C=C2/C(=O)Nc3ccccc32)c2ccccc12 [MAZ51], the “LEC migration induced by HFD-lymph” value [1] is given as “inhibited” and the “VEGF-C-dependent and VEGF-C-independent VEGFR-3 phosphorylation” value (VEGF receptor (VEGFR)-3) is given as “potently inhibit”.
